The values below come from US11446287B2, “Compounds and methods for EP300 or CBP modulation and indications therefor” (Opna Immuno-Oncology SA, priority 2019, dated 2022).

SMILES strings stand for the structures.

Broadly, the IC50 is the concentration needed to halve the response being measured.

For this assay, the target named is T1, Recombinant human CBP containing the bromodomain (CBP-BD (1043-1159)) (Homo sapiens, UniProt Q92793).
T1 construct: Recombinant human CBP bromodomain (CBP-BD (1043-1159)); made in house; host or cells: E. coli BL21-CodonPlus (DE3), modified pET vector
T1 sequence (Q92793 1081-1197): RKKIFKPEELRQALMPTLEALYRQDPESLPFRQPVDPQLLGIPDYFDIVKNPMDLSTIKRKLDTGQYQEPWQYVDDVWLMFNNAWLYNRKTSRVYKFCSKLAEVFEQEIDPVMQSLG
Description: CBP Alphascreen binding assay. The note with it: read-out: CREBBP (CBP) IC50. Summed up: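 Buffer: 50 mM HEPES pH 7.5, 50 mM NaCl, 0.01% BSA, 0.01% Triton X-100, 2 mM DTT. The signal was normalised to plate controls and fitted with a four-parameter curve to give IC50.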
In general terms: Alpha assays give light when donor and acceptor beads are brought close together.
`Cc1noc(C)c1-c1cnc2c(c1)c(-c1ccc(C(=O)O)cc1Cl)cn2C(c1ccccn1)C1CCCC1` (centres unmarked) [P-0027, 3-chloro-4-(1-(cyclopentyl(pyridin-2-yl)methyl)-5-(3,5-dimethylisoxazol-4-yl)-1H-pyrrolo[2,3-b]pyridin-3-yl)benzoic acid]: the IC50 lay within 0.1 to 1000 nM. The value for `Cc1cc(-c2cn(C(c3ccccn3)C3CCCC3)c3ncc(-c4c(C)noc4C)cc23)ccc1C(=O)O` (centres unmarked) [P-0028, 4-(1-(cyclopentyl(pyridin-2-yl)methyl)-5-(3,5-dimethylisoxazol-4-yl)-1H-pyrrolo[2,3-b]pyridin-3-yl)-2-methylbenzoic acid] was 0.1 to 1000 nM; that for `Cc1noc(C)c1-c1cnc2c(c1)c(-c1ccc(C(=O)O)c(C(F)(F)F)c1)cn2C(c1ccccn1)C1CCCC1` (centres unmarked) [P-0029, 4-(1-(cyclopentyl(pyridin-2-yl)methyl)-5-(3,5-dimethylisoxazol-4-yl)-1H-pyrrolo[2,3-b]pyridin-3-yl)-2-(trifluoromethyl)benzoic acid] was 0.1 to 1000 nM. Next, `Cc1noc(C)c1-c1cnc2c(c1)c(-c1ccc(C(=O)O)c(O)c1)cn2C(c1ccccn1)C1CCCC1` (centres unmarked) [P-0030, 4-(1-(cyclopentyl(pyridin-2-yl)methyl)-5-(3,5-dimethylisoxazol-4-yl)-1H-pyrrolo[2,3-b]pyridin-3-yl)-2-hydroxybenzoic acid]: 1000 to 8000 nM. Next, `Cc1noc(C)c1-c1cnc2c(c1)c(-c1ccc(CC(=O)O)cc1)cn2C(c1ccccn1)C1CCCC1` (centres unmarked) [P-0031, 2-(4-(1-(cyclopentyl(pyridin-2-yl)methyl)-5-(3,5-dimethylisoxazol-4-yl)-1H-pyrrolo[2,3-b]pyridin-3-yl)phenyl)acetic acid]: 0.1 to 1000 nM. Turning to `Cc1noc(C)c1-c1cnc2c(c1)c(-c1ccc(C(C)(C)C(=O)O)cc1)cn2C(c1ccccn1)C1CCCC1` (centres unmarked) [P-0032, 2-(4-(1-(cyclopentyl(pyridin-2-yl)methyl)-5-(3,5-dimethylisoxazol-4-yl)-1H-pyrrolo[2,3-b]pyridin-3-yl)phenyl)-2-methylpropanoic acid], the IC50 is 0.1 to 1000 nM. As for `Cc1noc(C)c1-c1cnc2c(c1)c(-c1ccc(C3(C(=O)O)CC3)cc1)cn2C(c1ccccn1)C1CCCC1` (centres unmarked) [P-0033, 1-(4-(1-(cyclopentyl(pyridin-2-yl)methyl)-5-(3,5-dimethylisoxazol-4-yl)-1H-pyrrolo[2,3-b]pyridin-3-yl)phenyl)cyclopropane-1-carboxylic acid], the IC50 was in the range of 0.1 to 1000 nM. Next, `Cc1noc(C)c1-c1cnc2c(c1)c(-c1ccc(C(F)(F)C(=O)O)cc1)cn2C(c1ccccn1)C1CCCC1` (centres unmarked) [P-0034, 2-(4-(1-(cyclopentyl(pyridin-2-yl)methyl)-5-(3,5-dimethylisoxazol-4-yl)-1H-pyrrolo[2,3-b]pyridin-3-yl)phenyl)-2,2-difluoroacetic acid]: 0.1 to 1000 nM; `COc1ncccc1-n1cc(-c2ccc(C(=O)O)cc2OC(F)(F)F)c2cc(-c3c(C)noc3C)cnc21` [P-0316, 4-(5-(3,5-dimethylisoxazol-4-yl)-1-(2-methoxypyridin-3-yl)-1H-pyrrolo[2,3-b]pyridin-3-yl)-3-(trifluoromethoxy)benzoic acid]: 0.1 to 1000 nM. The value for `Cc1ncccc1-n1cc(-c2ccc(C(=O)O)cc2OC(F)(F)F)c2cc(-c3c(C)noc3C)cnc21` [P-0317, 4-(5-(3,5-dimethylisoxazol-4-yl)-1-(2-methylpyridin-3-yl)-1H-pyrrolo[2,3-b]pyridin-3-yl)-3-(trifluoromethoxy)benzoic acid] was 0.1 to 1000 nM. Regarding `Cc1noc(C)c1-c1cnc2c(c1)c(-c1ccc(C(=O)O)cc1OC(F)(F)F)cn2-c1cnn(C)c1` [P-0318, 4-(5-(3,5-dimethylisoxazol-4-yl)-1-(1-methyl-1H-pyrazol-4-yl)-1H-pyrrolo[2,3-b]pyridin-3-yl)-3-(trifluoromethoxy)benzoic acid], the IC50 lay in the range of 0.1 to 1000 nM. Next, `Cc1noc(C)c1-c1cnc2c(c1)c(-c1ccc(C(=O)O)cc1OC(F)(F)F)cn2-c1cncnc1` [P-0319, 4-(5-(3,5-dimethylisoxazol-4-yl)-1-(pyrimidin-5-yl)-1H-pyrrolo[2,3-b]pyridin-3-yl)-3-(trifluoromethoxy)benzoic acid]: 0.1 to 1000 nM; `Cc1noc(C)c1-c1cnc2c(c1)c(-c1ccc(C(=O)O)cc1OC(F)(F)F)cn2-c1cnc(N)nc1` [P-0320, 4-(1-(2-aminopyrimidin-5-yl)-5-(3,5-dimethylisoxazol-4-yl)-1H-pyrrolo[2,3-b]pyridin-3-yl)-3-(trifluoromethoxy)benzoic acid]: 0.1 to 1000 nM.

As for `Cc1noc(C)c1-c1cnc2c(c1)c(-c1ccc(C(=O)O)cc1OC(F)(F)F)cn2-c1cnc(N(C)C)nc1` [P-0321], the IC50 lay within 0.1 to 1000 nM. The value for `Cc1noc(C)c1-c1cnc2c(c1)c(-c1ccc(C(=O)O)cc1OC(F)(F)F)cn2-c1ccc(C(=O)O)cc1` [P-0322, 4-(1-(4-carboxyphenyl)-5-(3,5-dimethylisoxazol-4-yl)-1H-pyrrolo[2,3-b]pyridin-3-yl)-3-(trifluoromethoxy)benzoic acid] was 0.1 to 1000 nM; that for `Cc1noc(C)c1-c1cnc2c(c1)c(-c1ccc(C(=O)O)cc1OC(F)(F)F)cn2-c1ccc(C(N)=O)cc1` [P-0323, 4-(1-(4-carbamoylphenyl)-5-(3,5-dimethylisoxazol-4-yl)-1H-pyrrolo[2,3-b]pyridin-3-yl)-3-(trifluoromethoxy)benzoic acid] was 0.1 to 1000 nM; that for `COc1cc(C(=O)O)ncc1-c1cn(-c2ccncc2Cl)c2ncc(-c3c(C)noc3C)cc12` [P-0324, 5-(1-(3-chloropyridin-4-yl)-5-(3,5-dimethylisoxazol-4-yl)-1H-pyrrolo[2,3-b]pyridin-3-yl)-4-methoxypicolinic acid] was 0.1 to 1000 nM.

On to `Cc1noc(C)c1-c1cnc2c(c1)c(-c1ccc(C(=O)O)cc1OCC(F)F)cn2[C@H]1CCOC1` [P-0325, (S)-3-(2,2-difluoroethoxy)-4-(5-(3,5-dimethylisoxazol-4-yl)-1-(tetrahydrofuran-3-yl)-1H-pyrrolo[2,3-b]pyridin-3-yl)benzoic acid], for which the IC50 is 0.1 to 1000 nM. Next, `CCn1cc(-n2cc(-c3ccc(C(=O)O)cc3OCC(F)F)c3cc(-c4c(C)noc4C)cnc32)c(C)n1` [P-0326, 3-(2,2-difluoroethoxy)-4-(5-(3,5-dimethylisoxazol-4-yl)-1-(1-ethyl-3-methyl-1H-pyrazol-4-yl)-1H-pyrrolo[2,3-b]pyridin-3-yl)benzoic acid]: 0.1 to 1000 nM; `Cc1noc(C)c1-c1cnc2c(c1)c(-c1c(F)cc(C(=O)O)cc1OCC(F)F)cn2-c1ccccc1` [P-0327, 3-(2,2-difluoroethoxy)-4-(5-(3,5-dimethylisoxazol-4-yl)-1-phenyl-1H-pyrrolo[2,3-b]pyridin-3-yl)-5-fluorobenzoic acid]: 0.1 to 1000 nM.

With `Cc1noc(C)c1-c1cnc2c(c1)c(-c1ccc(C(=O)O)cc1OCC(F)F)cn2-c1cnc(N2CCC2)nc1` [P-0328, 4-(1-(2-(azetidin-1-yl)pyrimidin-5-yl)-5-(3,5-dimethylisoxazol-4-yl)-1H-pyrrolo[2,3-b]pyridin-3-yl)-3-(2,2-difluoroethoxy)benzoic acid], the IC50 was in the range of 0.1 to 1000 nM. Next, `CCOc1cc(C(=O)O)nc(OCC)c1-c1cn(-c2ccc(F)cc2F)c2ncc(-c3c(C)noc3C)cc12` [P-0329, 5-(1-(2,4-difluorophenyl)-5-(3,5-dimethylisoxazol-4-yl)-1H-pyrrolo[2,3-b]pyridin-3-yl)-4,6-diethoxypicolinic acid]: 0.1 to 1000 nM; `CCOc1cc(C(=O)O)c(F)cc1-c1cn(-c2ccc(F)cc2F)c2ncc(-c3c(C)noc3C)cc12` [P-0330, 4-(1-(2,4-difluorophenyl)-5-(3,5-dimethylisoxazol-4-yl)-1H-pyrrolo[2,3-b]pyridin-3-yl)-5-ethoxy-2-fluorobenzoic acid]: 0.1 to 1000 nM; `Cc1noc(C)c1-c1cnc2c(c1)c(-c1c(Cl)cc(C(=O)O)cc1OCC(F)F)cn2-c1cnc(N2CCC2)nc1` [P-0331, 4-(1-(2-(azetidin-1-yl)pyrimidin-5-yl)-5-(3,5-dimethylisoxazol-4-yl)-1H-pyrrolo[2,3-b]pyridin-3-yl)-3-chloro-5-(2,2-difluoroethoxy)benzoic acid]: 0.1 to 1000 nM. Regarding `Cc1noc(C)c1-c1cnc2c(c1)c(-c1c(Cl)cc(C(=O)O)cc1OCC(F)F)cn2-c1ccccc1` [P-0332, 3-chloro-5-(2,2-difluoroethoxy)-4-(5-(3,5-dimethylisoxazol-4-yl)-1-phenyl-1H-pyrrolo[2,3-b]pyridin-3-yl)benzoic acid], the IC50 lay in the range of 0.1 to 1000 nM.

On to `Cc1noc(C)c1-c1cnc2c(c1)c(-c1c(Cl)cc(C(=O)O)cc1OCC(F)F)cn2[C@H]1CCOC1` [P-0333, (S)-3-chloro-5-(2,2-difluoroethoxy)-4-(5-(3,5-dimethylisoxazol-4-yl)-1-(tetrahydrofuran-3-yl)-1H-pyrrolo[2,3-b]pyridin-3-yl)benzoic acid], for which the IC50 was 0.1 to 1000 nM. The value for `Cc1noc(C)c1-c1cnc2c(c1)c(-c1ccc(C(=O)O)cc1OC1CCC1)cn2-c1ncccc1C#N` [P-0334, 4-(1-(3-cyanopyridin-2-yl)-5-(3,5-dimethylisoxazol-4-yl)-1H-pyrrolo[2,3-b]pyridin-3-yl)-3-cyclobutoxybenzoic acid] was 0.1 to 1000 nM; that for `Cc1noc(C)c1-c1cnc2c(c1)c(-c1ccc(C(=O)O)cc1OC(F)(F)F)cn2C1(CC#N)CCC1` [P-0335, 4-(1-(1-(cyanomethyl)cyclobutyl)-5-(3,5-dimethylisoxazol-4-yl)-1H-pyrrolo[2,3-b]pyridin-3-yl)-3-(trifluoromethoxy)benzoic acid] was 0.1 to 1000 nM. The value for `Cc1noc(C)c1-c1cnc2c(c1)c(-c1ccc(C(=O)O)cc1OC(C)C)cn2-c1ncccc1C#N` [P-0336, 4-(1-(3-cyanopyridin-2-yl)-5-(3,5-dimethylisoxazol-4-yl)-1H-pyrrolo[2,3-b]pyridin-3-yl)-3-isopropoxybenzoic acid] was 0.1 to 1000 nM.
